# How the values were obtained:
# Assay type in all cases: cell-based, human
# BPH-1 cells [1] = experiment: Cell viability by MTT assay in BPH-1 cells; conditions: BPH-1 cells, 48 h; for cell viability (number of viable cells): MTT
# Experimental: (§1) Human benign prostate hyperplasia epithelial cells (BPH-1) were obtained from Dr. Simon W. Hayward (Vanderbilt University, Nashville, Tenn.) and malignant androgen-independent prostate cancer epithelial cells (PC-3) were obtained from American Type Tissue Collection (Manassas, Va.). Cells were grown and maintained in RPMI 1640 with glutamine (Mediatech, Inc., Herndon, Va.) supplemented with 5% (BPH-1) or 10% (PC-3) fetal bovine serum (Hyclone, Logan, Utah) and 1% penicillin-streptomycin (Mediatech, Inc., Herndon, Va.). All cell types were maintained in 5% CO2 at 37° C.
# (§2) XN was isolated from hop cones as described previously (Stevens et al., J. Chromatogr. A 832 (1999) 97-107). Its oxidation product, xanthoaurenol (XAL), was prepared from xanthohumol (XN) by treatment with peroxynitrite. The structure of XAL was determined by mass spectrometry, NMR spectroscopy and X-ray diffraction analysis. Prenylflavonoids were dissolved in 100% methanol and were added to the culture medium at a final concentration of 2.5-200 μmol/L, depending on desired treatment. All treatments were done at approximately 50-70% confluency. As a control, methanol was added to culture medium equivalent to hop treatment.
# (§3) Cells were seeded into 24-well plates (50,000 cells per well). After 24 h, cells were treated with either XN or XAL as described above. Cell viability was evaluated by MTT assay as described by Mossmann et al., J. Immunol. Methods 65 (1983) 55-63. Production of formazan product was detected in a Molecular Devices SpectraMax (Molecular Devices, Sunnyvale, Calif.) at 580 nm.
# NFκB [2] = experiment: NFκB activation, transcription factor binding ELISA, nuclear extracts of BPH-1 cells; conditions: 20 μM, 48 h
# Experimental: (§4) FIG. 5 sets forth data relating to xanthohumol and xanthoaurenol inhibit NFκB activation in nuclear extracts of BPH-1 cells. Cells were treated with XN or XAL for 48 h. (A) Cells were harvested by scraping and then subjected to nuclear extraction. NFκB activation was determined using transcription factor binding ELISA as described in Section 2. Equal protein loading was confirmed using β-actin. Results are representative of two or more separate experiments. (B) BPH-1 cells were treated with XN or XAL for 48 h and detection of p65 nuclear protein was performed with immunoblotting methods. (C) No inhibition of NFκB activation in treated PC3 cells. Results are mean±SD, n=3. **P<0.01.
# (§5) NFκB Activity was measured using Trans AM NFκB p65/p50 Transcription Factor Assay Kit (Active Motif, CA). Cytosolic and nuclear extracts were prepared from cells by using Nuclear Extraction Kit (Active Motif, Carlsbad, Calif.). Nuclear extract samples (10 μg) were added to a 96 well plate with immobilized oligonucleotide containing the NFκB consensus site (5′-GGGACTTTCC-3′). Sample wells were incubated with primary antibody specific for NFκB, followed by incubation with an HRP-conjugated secondary antibody, followed by quantification at OD 580 using a plate reader (Molecular Devices, Sunnyvale, Calif.).
# NFκB [3] = experiment: NFκB activation, transcription factor binding ELISA, PC3 cells
# Experimental: as §4, §5
# PC-3 cells [4] = experiment: Cell viability by MTT assay in PC-3 cells; conditions: PC3 cells, 48 h; for cell viability (number of viable cells): MTT
# Experimental: as §1, §2, §3
# BPH-1 cells [5] = experiment: Annexin V (nexin) apoptosis assay in BPH-1 cells; conditions: 20 μM
# Experimental: FIG. 4 sets forth data relating to xanthohumol and xanthoaurenol induction of apoptosis in BPH-1 and PC-3 cells. Cells were treated with XN and XAL and apoptosis was detected using the Annexin V assay. Externalization of phosphatidyl serine, an early marker of apoptosis was detected by flow cytometry after staining with Annexin V-PE and 7AAD. Annexin V(+) 7AAD(−) cells are undergoing early apoptosis, and Annexin V(+) 7AAD(+) are undergoing late apoptosis. Values are mean±SD, n=3. *P<0.05, **P<0.01.
# (§6) At various times after treatment with XN or XAL, adherent and floating cells were collected for analysis. Apoptosis was assessed using a flow cytometry based nexin and multicaspase assay kits (Guava Technologies, Burlingame, Calif.). The nexin assay is based on measurement of externalization of phosphatidyl serine, a common characteristic of cells undergoing apoptosis. The multicaspase assay is based on measurement of caspase enzymes activated during apoptosis. Cells were trypsinized, washed in D-PBS and stained with Annexin V, sulforhodamine-valyl-alanyl-aspartyl-fluoromethyl-ketone (SR-VAD-FMK), and 7-amino-actinomycin D (7AAD) according to the manufactures instructions. Cell populations were quantified using Guava personal cytometer (Guava Technologies, Burlingame, Calif.).
# PC-3 cells [6] = experiment: Multicaspase assay (SR-VAD-FMK/7AAD flow cytometry) in PC-3 cells; conditions: 48 h
# Experimental: (§7) FIG. 3 sets forth data relating to xanthohumol and xanthoaurenol induction of caspase activity in BPH-1 and PC-3 cells. Cells were treated with XN or XAL for 48 h. Induction of apoptosis was measured using a multi-caspase assay. SR-VAD-FMK covalently binds caspases and positively stained cells were assessed by flow cytometry as a measure of caspase activation. 7-Amino-actinomycin D (7AAD), a nucleotide stain that only stains cells when membrane integrity is compromised, was used to differentiate between early and late apoptotic cells. SR-VAD-FMK(+) 7AAD(−) cells are undergoing early-mid apoptosis, […] late stage apoptotic cells. Values are mean±SD, n=3. *P<0.05, **P<0.01.
# as §6, with “Cells were trypsinized, washed in D-PBS and stained with Annexin V, sulforhodamine-valyl-alanyl-aspartyl-fluoromethyl-ketone (SR-VAD-FMK), and 7-amino-actinomycin D (7AAD) according to the manufactures instructions.” left out
# [7] = tested on: pro-apoptotic proteins Bax and p53 and anti-apoptotic protein Bcl-2; experiment: Western blot of Bax, p53 and Bcl-2 in whole cell lysates of BPH-1 cells; conditions: for expression of pro-apoptotic protein Bax / expression of pro-apoptotic protein p53: 10 and 20 μM; for expression of pro-apoptotic protein Bax / expression of pro-apoptotic protein p53 / expression of anti-apoptotic protein Bcl-2: 48 h
# Experimental: FIG. 6 sets forth data relating to xanthohumol and xanthoaurenol induce expression of proapoptotic proteins p53 and bax, with down-regulation of antiapoptotic proteins bcl-2 in BPH-1 cells. Western blot of pro-apoptotic proteins Bax and p53 and anti-apoptotic protein Bcl-2 were performed from whole cell lysates of BPH-1 cells treated with XN and XAL for 48 h. Blots are representative of three individual experiments.
# Cells were lysed in RIPA buffer and whole cell lysate protein concentrations were determined using a detergent-compatible protein assay (BioRad, CA). Proteins (15-35 μg) were separated by SDS-PAGE under standard conditions and were transferred to a nitrocellulose membrane (Biorad, CA) at 300 mA for 2 h. Antibody dilutions were as follows: Bax (BD Pharmingen, 1:500 dilution), Bcl-2 (Santa Cruz Biotechnology, 1:1000 dilution), p53 (Santa Cruz Biotechnology, 1:1000 dilution), NFκB p65 (Santa Cruz Biotechnology, 1:1000 dilution), actin (Sigma, 1:5000 dilution). Actin was used to confirm equal protein loading between samples. Protein was detected using chemiluminescence reagents (Pierce, Rockford, Ill.) with image analysis on Alpha Innotech photodocumentation system (Alpha Innotech, Hayward, Calif.).
# NFκB p65 = experiment: Immunoblot of p65 nuclear protein in BPH-1 cells; conditions: 48 h
# Experimental: as §4
# Cells were lysed in RIPA buffer and whole cell lysate protein concentrations were determined using a detergent-compatible protein assay (BioRad, CA). Proteins (15-35 μg) were separated by SDS-PAGE under standard conditions and were transferred to a nitrocellulose membrane (Biorad, CA) at 300 mA for 2 h. […] Protein was detected using chemiluminescence reagents (Pierce, Rockford, Ill.) with image analysis on Alpha Innotech photodocumentation system (Alpha Innotech, Hayward, Calif.).
# BPH-1 cells [8] = experiment: Cell cycle analysis (propidium iodide flow cytometry) in BPH-1 cells; conditions: for cell cycle modification: 10 and 20 μM
# Experimental: At various time points after treatment with XN and XAL, adherent and floating cells were collected and fixed in 70% ethanol at one million cells per aliqout. Samples were centrifuged at 500×g, washed with PBS, and resuspended in cellular DNA staining solution containing […] propidium iodide (Sigma, St Louis, Mo.) and 100 μg/mL RNase (Sigma, St Louis, Mo.) in PBS. After 30-min incubation at room temperature, cell populations were quantified using Guava personal cytometer. Data analysis was performed using Multi Cycle software (Phoenix Flow Systems, San Diego, Calif.).
# In Table 1, Cells were treated with 0, 10 or 20 μM XN or XAL, as indicated, and harvested after 48 h. Attached and floating cells were fixed in 70% ethanol and stained with propidium iodide, and cell cycle kinetics were examined using the Guava PCA, followed by data analysis with Multi-Cycle software.
# BPH-1 cells [9] = experiment: Multicaspase assay (SR-VAD-FMK/7AAD flow cytometry) in BPH-1 cells; conditions: 48 h
# Experimental: as §7, §6
# [10] = Cell viability by MTT assay in BPH-1 cells; conditions: human
# Experimental: as §1, §2, §3
# [11] = Cell viability by MTT assay in PC-3 cells; conditions: human
# Experimental: as §1, §2, §3
SMILES,cell viability (number of viable cells) (BPH-1 cells [1]),viability decreased to (BPH-1 cells [1]; concentration of XAL not given),decrease in NFκB activity (NFκB [2]),NFκB activation (NFκB [3]),cell viability (number of viable cells) (PC-3 cells [4]),viability decreased to (PC-3 cells [4]; concentration of XAL not given),Annexin V(+) 7AAD(+) cells (late apoptosis) (BPH-1 cells [5]),Annexin V(+) 7AAD(−) cells (early apoptosis) (BPH-1 cells [5]),SR-VAD-FMK stained cells (caspase activation) (PC-3 cells [6]),expression of pro-apoptotic protein Bax [7],expression of pro-apoptotic protein p53 [7],expression of anti-apoptotic protein Bcl-2 [7],NFκB p65 protein levels in the nuclear fraction (NFκB p65),"G1, percentage of cells in phase (BPH-1 cells [8]; 20 μM, 48 h, mean ± SE, n=3)",cell cycle modification (BPH-1 cells [8]),SR-VAD-FMK(+) 7AAD(+) cells (late apoptosis) (BPH-1 cells [9]),"SR-VAD-FMK(+) 7AAD(−) cells (caspase activation, early to mid stage apoptosis) (BPH-1 cells [9])","cytotoxicity at 48 h, 20 μM [10]","cytotoxicity at 48 h, 20 μM [11]",increase in expression of Bax and p53 compared with XAL [7]
"COc1cc(O)c(CC=C(C)C)c2c1C(=O)/C(=C/Oc1ccc(O)cc1)O2 [XAL, xanthoaurenol]",dose-dependent decrease in number of viable,81%,42%,No inhibition,dose-dependent decrease in number of viable,55%,increase,increase,increase only in late apoptotic SR-VAD-FMK(+) 7AAD(+) cells,Increase,Increase,decreased expression,increased,45.730 ± 1.376%,clear accumulation in the S phase,increase,increase,,,
"COc1cc(O)c(CC=C(C)C)c(O)c1C(=O)/C=C/c1ccc(O)cc1 [XN, xanthohumol]",dose-dependent decrease in number of viable,,42%,No inhibition,dose-dependent decrease in number of viable,,increase,increase,increase only in late apoptotic SR-VAD-FMK(+) 7AAD(+) cells,Increase,Increase,decreased expression,increased,,clear accumulation in the S phase,increase,increase,80%,43%,larger increase in expression of Bax and p53 than did treatment with XAL
"O=C(O[C@@H]1Cc2c(O)cc(O)cc2O[C@@H]1c1cc(O)c(O)c(O)c1)c1cc(O)c(O)c(O)c1 [epigallocatechin gallate, reference compound]",did not significantly decrease cell viability,,,,,,,,,,,,,,,,,,,

# — patent publication US20080233221A1, “Prostate cancer and benign prostatic hyperplasia treatments” (State of Oregon, priority 2007, published 2008)
